Results on two compounds are retold here after publication PMC9505254 (Pathogens, 2022).

“Also recorded” adds a separate entry of the source.

Series [1] deals with S. aureus (ATCC 25923) biofilm. Description: Inhibition of biofilm formation (crystal violet). It counts as cell-based. The following applies: Staphylococcus aureus, ATCC25923, alone at 0.2 µg mL−1, 48 h, 37 °C, A600, triplicate. The method, then:
The assay was made in flat-bottom 96-well polystyrene microplates as described by Bezerra et al.. The cell suspension was prepared using a single colony of S. aureus from a Petri dish with Mueller–Hinton broth (stock bacteria). The colony was transferred to Mueller–Hinton broth and incubated at 37 ℃ for 24 h. After, the cell suspension was standardized to a concentration of 10^6 cells mL^−1. […] The combination of peptide and antibiotic was made from the highest concentration of the peptide combined with the lowest antibiotic concentration and vice versa. After the incubation period, the supernatant was removed carefully from each well and washed one time with sterile NaCl 0.15 M solution. […] The absorbances were obtained via a microplate reader (BioTek^TM Epoch, BioTek Instruments, Inc., Winooski, VT, USA) at 600 nm. The experiment was repeated three times.

Series [2] concerns S. aureus (ATCC 25923) preformed biofilm. Briefly: Reduction of preformed biofilm mass (crystal violet). It counts as cell-based, Staphylococcus aureus. Here is the method:
After the incubation period, the supernatant was removed carefully from each well and washed one time with sterile NaCl 0.15 M solution. […] The absorbances were obtained via a microplate reader (BioTek^TM Epoch, BioTek Instruments, Inc., Winooski, VT, USA) at 600 nm. The experiment was repeated three times. The assay to observe the preformed biofilm reduction was conducted the same as described above but with some adjustments. […] The microplates were incubated in the dark, at 37 ℃, for 24 h. After incubation, the biofilm was washed, dried, and stained, and absorbance was taken as above.

For series [3], the system named is S. aureus biofilm cells. Description: ROS overproduction (DCFH-DA, fluorescence microscopy). The following applies: ciprofloxacin alone at 6.2, 0.2, 25 or 0.02 µg mL−1 (Figures 4 and 5).
Description: The ROS overproduction was determined following the method described by Bezerra et al. [13]. The assays were conducted as the same for PI analysis. Then, 20 μL of 2',7' […] diacetate (DCFH-DA, Sigma, St. Louis, MI, USA) was added and incubated in the dark for 30 min at 24 °C. Finally, the biofilms were washed with 0.15 M NaCl and observed under a fluorescence microscope (Olympus System BX 41, Tokyo, Japan) with an excitation wavelength of 488 nm and an emission wavelength of 525 nm.
Series [4] deals with type-O human erythrocytes.
In series [5] the test system is type-B human erythrocytes.
The subject of series [6] is type-A human erythrocytes.

Regarding `O=C(O)c1cn(C2CC2)c2cc(N3CCNCC3)c(F)cc2c1=O` [Ciprofloxacin], in series [1], the inhibition at 0.2 µg/mL was 10%. Further, the “reduction of preformed biofilm” value is recorded as 0% in series [2] (alone at 6.2 µg mL−1, 24 h biofilm, 24 h treatment, 37 °C, crystal violet, A600) and 8% in series [2] (alone at 25 µg mL−1). Further, the “reduction of the biomass of preformed biofilm” value in series [2] (ciprofloxacin alone at the Figure 1D concentrations (0.02, 0.39, 0.78, 6.2 µg mL−1)) is recorded as “not effective”; in series [2] (each alone at the concentrations of the two Figure 1C combinations (RcAlb-PepI 0.04 and 0.2; ciprofloxacin 25 and 6.2 µg mL−1)), “not effective”. The ROS overproduction entry in series [3] is “did not induce ROS; also recorded: not able to induce ROS accumulation”.

Consider Triton X-100, for which, in series [4], the “% Hemolysis Type-O Blood” value was found to be 100 ± 0.005%. Besides, the “% Hemolysis Type-B Blood” value in series [5] is 100 ± 0.001%. Also, the “% Hemolysis Type-A Blood” value in series [6] amounted to 100 ± 0.001%.
